Test results taken from patent publication US10307413B2, “Tetrahydro- and dihydro-isoquinoline PRMT5 inhibitors and uses thereof” (Epizyme, Inc., priority 2013, dated 2019).
Read-outs that look alike come from different tables or passages of the source.

What was measured:
[1] = tested on: symmetric di-methyl arginine in Z-138 cells; experiment: Z-138 Methylation Assay (In Cell Western for symmetric di-methyl arginine and DNA content); format: cell-based; conditions: Homo sapiens, In Cell Western methylation, read-out: ICW EC50
Procedure, shortened: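 In-cell western: symmetric di-methyl arginine signal ratioed to DRAQ5 DNA content after 96 h compound exposure of Z-138 cells seeded at 50,000 cells/mL.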

PRMT5/MEP50 = PRMT5/MEP50 (Homo sapiens (Human), UniProt O14744); experiment: PRMT5 Biochemical Assay (PRMT5/MEP50 enzyme assay on peptide substrate, 3H-SAM Flashplate); conditions: PRMT5 biochemical assay
Sequence of PRMT5/MEP50 (O14744 other isoform, or with tags, fused parts or gaps): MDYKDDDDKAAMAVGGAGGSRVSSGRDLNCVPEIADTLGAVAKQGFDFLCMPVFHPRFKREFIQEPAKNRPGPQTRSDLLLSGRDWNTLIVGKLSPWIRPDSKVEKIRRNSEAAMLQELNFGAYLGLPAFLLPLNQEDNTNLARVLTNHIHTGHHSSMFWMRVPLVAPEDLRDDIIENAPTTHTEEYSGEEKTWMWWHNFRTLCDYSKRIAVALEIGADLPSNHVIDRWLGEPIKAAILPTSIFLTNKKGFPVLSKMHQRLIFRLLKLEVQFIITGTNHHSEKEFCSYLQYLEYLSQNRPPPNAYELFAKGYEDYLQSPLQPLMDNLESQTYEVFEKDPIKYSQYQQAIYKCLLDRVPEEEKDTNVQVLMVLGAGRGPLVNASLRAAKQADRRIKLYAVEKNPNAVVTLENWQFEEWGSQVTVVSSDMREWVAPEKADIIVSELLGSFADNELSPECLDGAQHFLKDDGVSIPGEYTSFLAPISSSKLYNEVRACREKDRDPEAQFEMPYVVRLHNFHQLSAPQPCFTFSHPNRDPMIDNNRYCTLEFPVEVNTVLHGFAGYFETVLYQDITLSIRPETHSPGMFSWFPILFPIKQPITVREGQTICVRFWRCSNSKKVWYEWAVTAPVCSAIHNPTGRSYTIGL
Sequence of PRMT5/MEP50 (Q9BQA1 other isoform, or with tags, fused parts or gaps partner): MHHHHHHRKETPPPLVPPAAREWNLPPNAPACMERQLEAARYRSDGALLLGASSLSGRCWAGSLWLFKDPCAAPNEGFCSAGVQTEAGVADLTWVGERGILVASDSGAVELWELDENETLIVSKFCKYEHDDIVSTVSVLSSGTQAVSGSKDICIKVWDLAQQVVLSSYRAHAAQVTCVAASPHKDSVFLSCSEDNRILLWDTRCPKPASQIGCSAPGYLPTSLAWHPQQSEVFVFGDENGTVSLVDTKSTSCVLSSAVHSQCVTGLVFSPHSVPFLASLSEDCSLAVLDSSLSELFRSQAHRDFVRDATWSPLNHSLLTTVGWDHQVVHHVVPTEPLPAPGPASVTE
Procedure, shortened: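 Radiometric methylation of a biotin-tagged H4(1-15) peptide by human PRMT5/MEP50 from baculovirus/Sf9, with ³H-SAM incorporation read on streptavidin Flashplates. Buffer: Bicine pH 7.6, TCEP, BSG, Tween20; compound preincubated 30 min at 25 °C; stopped with 600 µM final unlabeled SAM. DMSO and SAH controls; IC50 from fitted % inhibition.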

Z-138 cell line = experiment: Z-138 Proliferation Assay (Cell Titer Glo, 5 days); format: cell-based; conditions: Homo sapiens, read-out: Proliferation EC50
Procedure, shortened: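 Viability via CellTiter-Glo luminescence (ATP) after 5-day incubation at 37 °C, 5% CO2. Compounds tested in triplicate, nine 3-fold steps, highest final concentration 20 μM in 0.2% DMSO; 50% inhibitory concentration by 4-parameter fit of normalized curves.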

[2] = 120 h, Z-138 cells, 5 days, Cell Titer Glo

Structure (SMILES) | EC50 [1] | IC50 (PRMT5/MEP50) | EC50 (Z-138 cell line; [2]) | EC50 (Z-138 cell line; Z-138, 120 h)
CC(=O)N1CC(Nc2cc(C(=O)NC[C@H](O)CN3CCc4cc(C)ccc4C3)ncn2)C1 [Compound 674] | < 100 nM | < 100 nM | 1000 to 10000 nM | 
CC(=O)N1CCC(Nc2cc(C(=O)NC[C@H](O)CN3CCc4cc(C)ccc4C3)ncn2)CC1 [Compound 675] | < 100 nM | < 100 nM | 101 to 1000 nM | 
CC(=O)N1CC(Nc2cc(C(=O)NC[C@H](O)CN3CCc4c(C)cccc4C3)ncn2)C1 [Compound 676] | < 100 nM | < 100 nM | 1000 to 10000 nM | 
CC(=O)N1CCC(Nc2cc(C(=O)NC[C@H](O)CN3CCc4c(C)cccc4C3)ncn2)CC1 [Compound 677] | < 100 nM | < 100 nM | 1000 to 10000 nM | 
CC(=O)N1CCC(Nc2cc(C(=O)NC[C@H](O)CN3CCc4ccccc4C3)nc(N3CCOCC3)c2)CC1 [Compound 678] | < 100 nM | < 100 nM | 101 to 1000 nM | 
CC(=O)N1CCC(Nc2cc(C(=O)NC[C@H](O)CN3CCc4ccccc4C3)nc(N3CCN(C(C)=O)CC3)c2)CC1 [Compound 679] | < 100 nM | < 100 nM | 101 to 1000 nM | 
Cc1ccc2c(c1)CCN(C[C@@H](O)CNC(=O)c1cc(NC3COC3)ncn1)C2 [Compound 681] | 101 to 1000 nM | 101 to 1000 nM | > 5000 nM | 
CC(=O)N1CCC(Nc2cc(C(=O)NC[C@H](O)CN3CCc4cc(C)ccc4C3)ccn2)CC1 [Compound 682] | < 100 nM | < 100 nM | 101 to 1000 nM | 
Cc1cccc2c1CCN(C[C@@H](O)CNC(=O)c1cc(NC3COC3)ncn1)C2 [Compound 683] | 101 to 1000 nM | 101 to 1000 nM | > 5000 nM | 
CC(=O)N1CCC(Nc2cc(C(=O)NC[C@H](O)CN3CCc4ccccc4C3)nc(N3CCN(C)CC3)c2)CC1 [Compound 684] | < 100 nM | < 100 nM | 101 to 1000 nM | 
CC(=O)N1CCC(Nc2cc(C(=O)NC[C@H](O)CN3CCc4ccccc4C3)nc(N(C)C)c2)CC1 [Compound 685] | < 100 nM | < 100 nM | 101 to 1000 nM | 
O=C(NC[C@H](O)CN1CCc2ccccc2C1)c1cnnc(NC2CCNC2)c1 (stereo partly drawn) [Compound 686] | > 1000 nM | < 100 nM | > 5000 nM | 
CN1CCC(Nc2cc(C(=O)NC[C@H](O)CN3CCc4ccccc4C3)cnn2)C1 (stereo partly drawn) [Compound 689] | 101 to 1000 nM | < 100 nM | > 5000 nM | 
COC(CNC(=O)c1cc(NC2CN(C(C)=O)C2)ncn1)CN1CCc2ccccc2C1 (stereo not drawn) [Compound 690] | 101 to 1000 nM | 101 to 1000 nM | > 5000 nM | 
COC(CNC(=O)c1ccnc(NC2CCN(C(C)=O)CC2)c1)CN1CCc2ccccc2C1 (stereo not drawn) [Compound 691] | < 100 nM | < 100 nM | 1000 to 10000 nM | 
CC(=O)N1CCC(Nc2cc(C(=O)NCC(O)C(C)N3CCc4ccccc4C3)ccn2)CC1 (stereo not drawn) [Compound 692] | 101 to 1000 nM | 101 to 1000 nM | > 5000 nM | 
O=C(NC[C@H](O)CN1CCc2ccccc2C1)c1cnnc(NC2CCOCC2)c1 [Compound 693] | < 100 nM | < 100 nM | 101 to 1000 nM | 
CC(=O)N1CCC(Nc2cc(C(=O)NC[C@H](O)CN3CCc4ccccc4C3C)ccn2)CC1 (stereo partly drawn) [Compound 694] | < 100 nM | < 100 nM | 101 to 1000 nM | 
CC(=O)N1CCC(Nc2cc(C(=O)NCC(F)CN3CCc4ccccc4C3)ccn2)CC1 (stereo not drawn) [Compound 698] | < 100 nM | < 100 nM |  | 1000 to 10000 nM
